The results in this text go back to ChEMBL document CHEMBL1201862, “PubChem BioAssay data set” (2004).

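Five concentrations, 48 hours, 96-well plates. At the GI50, growth is halved.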 Calls of active or inactive are those of the source. No stated cut-off is given here; in the data, active = GI50 up to about 1.1 µM and inactive = higher.

Test systems include DU-145; NCI-H460; UO-31; BT-549; 786-0; Hs-578T; KM12; HCT-116; U-251; SNB-75; RPMI-8226; A498; HOP-92; T47D; HT-29; NCI-H226; IGROV-1; HCT-15; UACC-62; MOLT-4.
Holding throughout (assay): NCI anticancer screen, dose series, 48 h

Turning to `C#CC(O)Cc1ccc(OC)c2occc12` (configuration not stated), the GI50 in the test on DU-145, in the test on NCI-H460, with UO-31, in the test with BT-549, in the test on 786-0 and in the test on Hs-578T was > 100 µM (inactive) in each case. For the same compound, the GI50 with KM12 is > 100 µM (inactive); in the test on HCT-116, > 100 µM (inactive); in the test on U-251, > 100 µM (inactive); with SNB-75 it was 52.1 µM (inactive); with RPMI-8226 it was > 100 µM (inactive); with A498, > 100 µM (inactive). The GI50 with HOP-92 was > 100 µM (inactive); in the test with T47D, > 100 µM (inactive); in the test with HT-29, > 100 µM (inactive); in the test with NCI-H226, > 100 µM (inactive); with IGROV-1, > 100 µM (inactive); in the test on HCT-15, more than 100 µM. The GI50 in the test on UACC-62 is > 100 µM (inactive).

As to `C=CCCCCCCCCCOC1C=CC(O)C(CO)O1` (configuration not stated), the GI50 with DU-145 was 95.3 µM (inactive); in the test with NCI-H460, 25.2 µM (inactive); in the test with UO-31, 35.8 µM (inactive); in the test with BT-549 it was 48.4 µM (inactive); with 786-0 it was 44.5 µM (inactive); with Hs-578T it was 46 µM (inactive). Further, the GI50 was 27.2 µM (inactive) in the test on KM12; 46.3 µM (inactive) in the test on HCT-116; 28.6 µM (inactive) in the test on U-251; 51.2 µM (inactive) in the test with SNB-75; 14.9 µM (inactive) in the test with RPMI-8226; 25.5 µM (inactive) in the test on MOLT-4. The GI50 in the test on A498 was 99.5 µM (inactive); in the test on HOP-92 it was 33.5 µM (inactive); in the test with T47D, 52.2 µM (inactive); with HT-29, 22.6 µM (inactive); with NCI-H226, > 100 µM (inactive); in the test on IGROV-1, 16.6 µM (inactive). In addition, the GI50 in the test with HCT-15 is 35.1 µM; in the test on UACC-62, 27.8 µM (inactive).

Take `O=C1Nc2ccccc2/C1=C1/Nc2ccccc2/C1=N/OCCOCCO`: the GI50 in the test on DU-145 was 1.39 µM (inactive); with NCI-H460, 1.21 µM (inactive); in the test with UO-31, 0.662 µM (active); in the test on BT-549, 2.38 µM (inactive); with 786-0 it was 2.48 µM (inactive); in the test on Hs-578T, 0.592 µM (active). The GI50 with KM12 was 0.0423 µM (active); in the test with HCT-116 it was 0.582 µM (active); in the test on U-251 it was 3.29 µM (inactive); in the test on SNB-75, 2.35 µM (inactive); in the test with RPMI-8226 it was 3.47 µM (inactive); with MOLT-4, 2.96 µM (inactive). The GI50 in the test on A498 is 0.259 µM (active); with HOP-92 it was 13.8 µM (inactive); with T47D, 2.89 µM (inactive); with HT-29 it was 1.45 µM (inactive); with NCI-H226, 0.547 µM (active); in the test with IGROV-1, 0.0836 µM (active). Also, the GI50 was 0.664 µM in the test on HCT-15 and 1.44 µM (inactive) with UACC-62.

Take `Nc1nc(O)c2ncn([C@H]3CC[C@@H](CO)O3)c2n1`: the GI50 with DU-145, in the test on NCI-H460, in the test on UO-31, in the test with BT-549, with Hs-578T and with KM12 was > 100 µM (inactive) each time. Further, the GI50 in the test with HCT-116, with U-251, in the test on SNB-75, with RPMI-8226, with MOLT-4 and in the test on A498 was > 100 µM (inactive) in each case. Further, the GI50 in the test with HOP-92 is > 100 µM (inactive); in the test with T47D, > 100 µM (inactive); with HT-29, > 100 µM (inactive); in the test on NCI-H226, > 100 µM (inactive); in the test with IGROV-1, > 100 µM (inactive); in the test with HCT-15, more than 100 µM. Also, the GI50 in the test with UACC-62 was > 100 µM (inactive).

As for `CC1=C(C(=O)NCCc2ccccc2)CC(C(=O)NCCc2ccccc2)=C(C)N1`, the GI50 in the test with DU-145 is > 100 µM (inactive); in the test on NCI-H460 it was 82.4 µM (inactive); in the test with UO-31, 65.8 µM (inactive); in the test with BT-549, > 100 µM (inactive); in the test on 786-0, 87.5 µM (inactive); in the test with Hs-578T, 29.9 µM (inactive). Besides, the GI50 in the test with KM12 is 38.3 µM (inactive); with HCT-116 it was 74.5 µM (inactive); with U-251, > 100 µM (inactive); in the test on SNB-75, 14.3 µM (inactive); in the test on RPMI-8226, 45.7 µM (inactive); in the test on MOLT-4 it was 74 µM (inactive). The GI50 in the test with A498 is 33.2 µM (inactive); in the test on HOP-92 it was 49.3 µM (inactive); in the test on T47D, 64.6 µM (inactive); in the test on HT-29 it was 61.1 µM (inactive); with NCI-H226, > 100 µM (inactive); in the test on IGROV-1 it was 54.8 µM (inactive). Besides, the GI50 in the test with HCT-15 is more than 100 µM; in the test with UACC-62, > 100 µM (inactive).

For the compound `CCCNC(=O)c1cc(NC(=O)c2cc(NC(=O)CCS(=O)(=O)OC)cn2C)cn1C`, the GI50 with DU-145 was 24.2 µM (inactive); in the test with NCI-H460, > 100 µM (inactive); in the test on UO-31, > 100 µM (inactive); with BT-549 it was 3.68 µM (inactive); in the test with 786-0 it was 23.7 µM (inactive); in the test with Hs-578T it was 32.7 µM (inactive). For the same compound, the GI50 with KM12 is 21.9 µM (inactive); in the test with HCT-116, 12.8 µM (inactive); in the test on U-251 it was 6.62 µM (inactive); in the test on SNB-75, 20.6 µM (inactive); with RPMI-8226, > 100 µM (inactive); in the test on MOLT-4, 17.5 µM (inactive). Moreover, the GI50 is > 69.3 µM (inactive) with A498; 3.76 µM (inactive) in the test with HOP-92; 5.11 µM (inactive) in the test with T47D; 22 µM (inactive) with HT-29; 15 µM (inactive) with IGROV-1; more than 100 µM with HCT-15. In the test with UACC-62, the GI50 is 19.8 µM (inactive).

On to `CC(=O)C(C(=N)C#N)C(=O)Nc1ccccc1` (configuration not stated), for which the GI50 with DU-145 is > 100 µM (inactive); in the test on NCI-H460 it was > 100 µM (inactive); with BT-549, > 100 µM (inactive); in the test on 786-0 it was > 100 µM (inactive); with Hs-578T, 44.9 µM (inactive); in the test on KM12, > 100 µM (inactive). Also, the GI50 with HCT-116, in the test with U-251, in the test with SNB-75, in the test on RPMI-8226, in the test on MOLT-4 and in the test on A498 was > 100 µM (inactive) each time. Also, the GI50 in the test on HOP-92 was > 100 µM (inactive); with T47D, > 100 µM (inactive); with HT-29, > 100 µM (inactive); in the test with NCI-H226 it was > 100 µM (inactive); in the test with IGROV-1, > 100 µM (inactive); in the test with HCT-15 it was more than 100 µM. In addition, the GI50 in the test on UACC-62 was > 100 µM (inactive).

On to `CO/N=C(\C(=O)O/C(=N/C1CCCCC1)NC1CCCCC1)c1csc(NC(c2ccccc2)(c2ccccc2)c2ccccc2)n1`, for which the GI50 with DU-145, with NCI-H460, with UO-31, in the test on BT-549, with 786-0 and with Hs-578T was > 10 µM (inactive) each time. Further, the GI50 in the test with KM12, in the test on HCT-116, with U-251, in the test with SNB-75, in the test with RPMI-8226 and with MOLT-4 was > 10 µM (inactive) throughout. Besides, the GI50 in the test with A498, with HOP-92, with T47D, with HT-29, in the test on NCI-H226 and in the test on IGROV-1 was > 10 µM (inactive) in each case. The compound also gave a GI50 in the test on HCT-15 of more than 10 µM.

As for `CC(CC(=O)O)(CC(=O)O)C(=O)O`, the GI50 with DU-145, with NCI-H460, in the test on UO-31, with BT-549, in the test on 786-0 and in the test on Hs-578T was > 100 µM (inactive) throughout. In addition, the GI50 in the test with KM12, with HCT-116, with U-251, with SNB-75, in the test with RPMI-8226 and with MOLT-4 was > 100 µM (inactive) in each case. In addition, the GI50 in the test on A498 is > 100 µM (inactive); in the test on HOP-92, > 100 µM (inactive); in the test on T47D, > 100 µM (inactive); in the test on HT-29, > 100 µM (inactive); in the test with IGROV-1, > 100 µM (inactive); in the test with HCT-15 it was more than 100 µM. The GI50 in the test on UACC-62 is > 100 µM (inactive).

In the case of `Cc1nc2sc3cccc(Cl)c3n2c(=O)c1/N=N/c1ccc(Cl)cc1`, the GI50 is > 100 µM (inactive) in the test with DU-145; > 100 µM (inactive) in the test with NCI-H460; 93.8 µM (inactive) with BT-549; > 100 µM (inactive) with 786-0; 45.9 µM (inactive) in the test with Hs-578T; > 100 µM (inactive) in the test with KM12. For the same compound, the GI50 in the test with HCT-116 is 88.1 µM (inactive); in the test on U-251 it was > 100 µM (inactive); in the test on SNB-75 it was 85.3 µM (inactive); in the test with RPMI-8226 it was > 100 µM (inactive); in the test with MOLT-4, 44.9 µM (inactive); in the test with A498 it was 17.4 µM (inactive). Further, the GI50 in the test on HOP-92 is 46.6 µM (inactive); in the test on T47D it was 45.3 µM (inactive); in the test with HT-29, 67.1 µM (inactive); in the test on NCI-H226 it was 42.4 µM (inactive); in the test with IGROV-1 it was 63.8 µM (inactive); in the test on HCT-15, more than 100 µM.
